In patent US20130004588A1, “DIVALENT CATION CONTAINING COMPOSITIONS AND METHODS FOR TREATING AND/OR PREVENTING ENZYMATIC IRRITATION” (priority 2011, published 2013):

Assays:
trypsin [1] = assay: Inhibition of trypsin-induced cleavage of fluorescent casein, EnzChek protease assay (cations and salt forms, Examples 1 and 2); format: biochemical
Experimental: The inhibition of trypsin-induced cleavage of a fluorescent casein peptide was measured using the EnzChek™ protease assay kit, following manufacturer's instructions (EnzChek™ Protease Assay Kits Product Information, Revised; Molecular Probes, Eugene Oreg.). Briefly, test materials at different concentrations were prepared in 1×phosphate buffered saline (PBS, pH 7.4). Trypsin working solution (Sigma, St. Louis, Mo., unit/mL) was prepared in digestion buffer provided in the assay kit. Stock solution of BODIPY FL casein (trypsin substrate, mg/mL) was prepared by adding 0.2 mL to the substrate vials (provided in kit), and the final substrate working solution (10 microgram/mL) was prepared by dilution in digestion buffer (pH 7.8). […] Each experiment was performed in three replicates.

trypsin [2] = target: T1, trypsin (Bos taurus, UniProt P00760); settings: low concentrations, around 0.001 M; cited from earlier work
T1 sequence (P00760 24-246): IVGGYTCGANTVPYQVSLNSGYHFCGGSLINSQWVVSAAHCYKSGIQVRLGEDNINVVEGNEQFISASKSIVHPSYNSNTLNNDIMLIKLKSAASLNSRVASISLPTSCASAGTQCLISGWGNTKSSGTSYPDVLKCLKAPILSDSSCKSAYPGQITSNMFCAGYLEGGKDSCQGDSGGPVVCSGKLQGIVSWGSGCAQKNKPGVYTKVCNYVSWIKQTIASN

trypsin [3] = assay: EnzChek trypsin inhibition assay, mixtures of talc with divalent cation salts (Example 3); format: biochemical; settings: for With Talc trypsin inhibition activities (%): all tested materials at 0.1% (g/mL); for Hypothetically calculated additive value of salt and Talc: Table 4
Experimental: The objective of the following experiment was to determine whether and to what extent adding a divalent cation to talc inhibited trypsin activity in an in vitro assay. The inhibition of trypsin-induced cleavage of a fluorescent casein peptide was measured using the EnzChek™ protease assay kit, following manufacturer's instructions (EnzChek™ Protease Assay Kits Product Information, Revised; Molecular Probes, Eugene Oreg.). […] Trypsin working solution (Sigma, St. Louis, Mo., unit/mL) was prepared in digestion buffer provided in the assay kit. Stock solution of BODIPY FL casein (trypsin substrate, mg/mL) was prepared by adding 0.2 mL to the substrate vials (provided in kit), and the final substrate working solution (10 microgram/mL) was prepared by dilution in digestion buffer (pH 7.8). Following incubation of the trypsin, with or without the test materials, with the BODIPY fluorescent casein substrate, at room temperature for one hour, fluorescence was measured (excitation 485 nm /emission 530 nm) using a SpectraMax microtiter plate reader (Molecular Devices Corporation, Sunnyvale, Calif.) and Softmax Pro software (Molecular Devices Corporation). Each experiment was performed in three replicates.

trypsin [4] = assay: EnzChek trypsin inhibition assay, zinc oxide/acid mixtures and zinc oxide containing formulations (Example 4); format: biochemical; settings: for % trypsin inhibitory activity: Table 5
Experimental: The objective of the following experiment was to determine whether and to what extent adding an acid to a formulation containing zinc oxide had on inhibition of trypsin activity in an in vitro assay. The inhibition of trypsin-induced cleavage of a fluorescent casein peptide was measured using the EnzChek™ protease assay kit, following manufacturer's instructions (EnzChek™ Protease Assay Kits Product Information, Revised; Molecular Probes, Eugene Oreg.). Briefly, mixtures of zinc oxide and acid at different concentrations were prepared in 1×PBS (pH 7.4) and their pH was recorded as listed in the Tables 5-8. Trypsin working solution (Sigma, St. Louis, Mo., unit/mL) was prepared in digestion buffer provided in the assay kit. Stock solution of BODIPY FL casein (trypsin substrate, mg/mL) was prepared by adding 0.2 mL to the substrate vials (provided in kit), and the final substrate working solution (10 microgram/mL) was prepared by dilution in digestion buffer (pH 7.8). Following incubation of the trypsin, with or without the test materials (50 μl), with the BODIPY fluorescent casein substrate, at room temperature for one hour, fluorescence was measured (excitation 485 nm/emission 530 nm) using a SpectraMax microtiter plate reader (Molecular Devices Corporation, Sunnyvale, Calif.) and Softmax Pro software (Molecular Devices Corporation). Each experiment was performed in three replicates.
For preparations, samples were diluted in 1×PBS at 1:10 ratio and subjected to centrifugation at 13,200 rpm for 1 min using Eppendorf Centrifuge (Model 5415D, Eppendorf AG, Hamburg, Germany) to remove the solid formulation ingredients. The supernatants (50 μl) were used for trypsin inhibitory activity analyses as described above. For preparations, samples were diluted in 10, or 20 or 40% ethanol and subjected to centrifugation at 13,200 rpm for 1 min using Eppendorf Centrifuge (Model 5415D, Eppendorf AG, Hamburg, Germany) to remove the solid formulation ingredients. The supernatants (50 μl) were used for trypsin inhibition assay. Possible effects of ethanol solution (10, 20 or 40% ethanol) on trypsin inhibition activity were tested in the same study and found no significant impact.

O.O.[Cl][Cu][Cl] [(II) chloride dihydrate]
% trypsin inhibitory activity (trypsin [1]; Table 1, 0.01% (g/mL)): 64.98%
% trypsin inhibitory activity (trypsin [1]; Table 1, 0.10% (g/mL)): 99.34%
% trypsin inhibitory activity (trypsin [1]; Table 1, 1% (g/mL)): 108.34%

[Ag+] [Ag+]
inhibition of the esterase activity of trypsin (trypsin [2]): inhibited

CC(=O)[O-].CC(=O)[O-].O.[Ca+2] [Calcium acetate monohydrate]
% synergistic activity relative to hypothetic additive value (trypsin [3]; Table 3, 0.1% (g/mL)): 3.10%
With Talc trypsin inhibition activities (%) (trypsin [3]; Table 3): 24.6%

[Ca+2].[Cl-].[Cl-] [Calcium chloride]
% synergistic activity relative to hypothetic additive value (trypsin [3]; Table 3, 0.1% (g/mL)): −0.26%
With Talc trypsin inhibition activities (%) (trypsin [3]; Table 3): 26.43%

[Cu+2] [Cu++]
inhibition of the esterase activity of trypsin (trypsin [2]): inhibited

[Hg+2] [Hg++]
inhibition of the esterase activity of trypsin (trypsin [2]): inhibited

O.O.O.O.[Cl][Fe][Cl] [Iron (II) chloride tetrahydrate]
% trypsin inhibitory activity (trypsin [1]; Table 1, 0.01% (g/mL)): −3.24%
% trypsin inhibitory activity (trypsin [1]; Table 1, 0.10% (g/mL)): 64.84%
% trypsin inhibitory activity (trypsin [1]; Table 1, 1% (g/mL)): 112.23%
% synergistic activity relative to hypothetic additive value (trypsin [3]; Table 3, 0.1% (g/mL)): −12.35%
With Talc trypsin inhibition activities (%) (trypsin [3]; Table 3): 64.53%

[Cl-].[Li+] [Lithium chloride, reference compound]
% trypsin inhibitory activity (trypsin [1]; Table 1, 0.01% (g/mL)): 8.71%
% trypsin inhibitory activity (trypsin [1]; Table 1, 0.10% (g/mL)): 7.56%
% trypsin inhibitory activity (trypsin [1]; Table 1, 1% (g/mL)): −0.56%

CC(=O)[O-].CC(=O)[O-].O.O.O.O.[Mg+2] [Magnesium acetate tetrahydrate]
% trypsin inhibitory activity (trypsin [1]; Table 2, 0.10% weight (g/mL)): −3.09%
Salt alone trypsin inhibition activities (%) (trypsin [3]; Table 3, 0.1% (g/mL)): 0.83%
With Talc trypsin inhibition activities (%) (trypsin [3]; Table 3): 17.83%

[Cl-].[Cl-].[Mg+2] [Magnesium chloride]
With Talc trypsin inhibition activities (%) (trypsin [3]; Table 3): 20.05%
Hypothetically calculated additive value of salt and Talc (trypsin [3]; 0.1% MgCl2, 1% Talc): 12.44%
Hypothetically calculated additive value of salt and Talc (trypsin [3]; 0.5% MgCl2, 1% Talc): 22.93%
Hypothetically calculated additive value of salt and Talc (trypsin [3]; 1% MgCl2, 1% Talc): 25.55%
trypsin inhibitory activity (in words) (trypsin [3]; talc and magnesium chloride alone or combined): moderate to low levels

O=[N+]([O-])[O-].[Ag+] [Silver nitrate, reference compound]
% trypsin inhibitory activity (trypsin [1]; Table 1, 0.01% (g/mL)): −2.43%
% trypsin inhibitory activity (trypsin [1]; Table 1, 0.10% (g/mL)): 2.91%
% trypsin inhibitory activity (trypsin [1]; Table 1, 1% (g/mL)): 5.37%

[Cl-].[Na+] [Sodium chloride, reference compound]
% trypsin inhibitory activity (trypsin [1]; Table 1, 0.01% (g/mL)): −7.57%
% trypsin inhibitory activity (trypsin [1]; Table 1, 0.10% (g/mL)): −4.15%
% trypsin inhibitory activity (trypsin [1]; Table 1, 1% (g/mL)): 10.88%

[Cl-].[Cl-].[Sr+2] [Strontium chloride]
% trypsin inhibitory activity (trypsin [1]; Table 1, 0.01% (g/mL)): 6.51%
% trypsin inhibitory activity (trypsin [1]; Table 1, 0.10% (g/mL)): 11.78%
% trypsin inhibitory activity (trypsin [1]; Table 1, 1% (g/mL)): 47.05%

CC(=O)[O-].CC(=O)[O-].[Zn+2] [Zinc acetate dihydrate]
% synergistic activity relative to hypothetic additive value (trypsin [3]; Table 3, 0.1% (g/mL)): −15.70%
With Talc trypsin inhibition activities (%) (trypsin [3]; Table 3): 60.18%

[Cl-].[Cl-].[Zn+2] [Zinc chloride]
% trypsin inhibitory activity (trypsin [1]; Table 1, 0.01% (g/mL)): 42.99%
% trypsin inhibitory activity (trypsin [1]; Table 1, 0.10% (g/mL)): 88.51%
% trypsin inhibitory activity (trypsin [1]; Table 1, 1% (g/mL)): 105.87%
% trypsin inhibitory activity (trypsin [1]; Table 2, 0.01% weight (g/mL)): 41.25%
% trypsin inhibitory activity (trypsin [1]; Table 2, 0.10% weight (g/mL)): 87.69%
% trypsin inhibitory activity (trypsin [1]; Table 2, 1% weight (g/mL)): 98.75%
% synergistic activity relative to hypothetic additive value (trypsin [3]; Table 3, 0.1% (g/mL)): −13.01%
With Talc trypsin inhibition activities (%) (trypsin [3]; Table 3): 77.96%

CC(O)C(=O)[O-].CC(O)C(=O)[O-].[Zn+2] (stereo not drawn) [Zinc lactate]
% trypsin inhibitory activity (trypsin [1]; Table 2, 0.01% weight (g/mL)): 23.01%
% trypsin inhibitory activity (trypsin [1]; Table 2, 0.10% weight (g/mL)): 36.36%
% trypsin inhibitory activity (trypsin [1]; Table 2, 1% weight (g/mL)): 87.95%

[O]=[Zn] [ZnO, zinc oxide]
% trypsin inhibitory activity (trypsin [4]; 0.1% ZnO with 0.01% acetic acid, pH 7.28): 1.85 +/− 1.34%
% trypsin inhibitory activity (trypsin [4]; 0.1% ZnO with 0.05% acetic acid, pH 6.03): 49.16 +/− 1.43%
% trypsin inhibitory activity (trypsin [4]; 0.1% ZnO, no acetic acid, pH 7.61): −2.6 +/− 2.76%
% trypsin inhibitory activity (trypsin [4]; 1% ZnO with 0.01% acetic acid, pH 7.85): 15.82 +/− 1.68%
% trypsin inhibitory activity (trypsin [4]; 1% ZnO with 0.05% acetic acid, pH 6.08): 58.19 +/− 0.73%
% trypsin inhibitory activity (trypsin [4]; 1% ZnO, no acetic acid, pH 8.07): 5.40 +/− 1.24%
trypsin inhibitory activity (in words) (trypsin [4]; conclusion from Tables 5-8): minimal protease activity

CC(=O)O [acetic acid]
% trypsin inhibitory activity (trypsin [4]; no ZnO, 0.01% acetic acid, pH 6.84): −11.18 +/− 2.61%
% trypsin inhibitory activity (trypsin [4]; no ZnO, 0.05% acetic acid, pH 4.75): 25.81 +/− 2.13%

Zinc gluconate
% trypsin inhibitory activity (trypsin [1]; Table 2, 0.01% weight (g/mL)): 25.33%
% trypsin inhibitory activity (trypsin [1]; Table 2, 0.10% weight (g/mL)): 40.93%
% trypsin inhibitory activity (trypsin [1]; Table 2, 1% weight (g/mL)): 85.52%
